Source: patent EP0655457A1, “MORANOLINE DERIVATIVE” (NIPPON SHINYAKU COMPANY, LIMITED, priority 1992, dated 1994)

Tested on: ELAM-1 dependent adhesion of cultured human leukemia HL60 cells
Assay: Binding of HL60 cells to IL-1β-activated human vascular endothelial cells (cell adhesion count)
Format: cell-based
Conditions: for Cell adhesion count (%): % of control (HL60 bound to IL-1β-activated HUVEC = 100%); for Cell adhesion count: adhered HL60 cells on HUVEC activated with IL-1β 10U/ml
Procedure: The effect of the synthetic sugar on the binding of activated human vascular endothelial cells and cultured human leukemia HL60 cells
Cultured human vascular endothelial cells were separated from the human umbilical vein by collagenase treatment and cultured in a culture flask coated with 1% gelatin or fibronectin at a concentration of 0.02 mg/cm². The growth medium used was prepared by adding 15% fetal calf serum (FCS), 45 mg/l ECGS, 90 mg/l heparin and 40 mg/l gentamicin to medium 199. The proliferation of the cultured human leukemia cell line HL60 was maintained using 10% FCS-containing RPMI-1640. Both cells were cultured in a CO₂ incubator (5% CO₂, 95% air) at 37°C.
The cultured human umbilical vein endothelial cells (HUVEC) were seeded on a 96-well microtiter plate which had been precoated with 0.1% gelatin and were incubated until the growth became confluent. After the cells were washed with 10% FCS-containing Dulbecco's modified Eagle's medium (DMEM), 100 µl of 10% FCS-DMEM containing recombinant human interleukin-1β (IL-1β) was added. The cells were then cultured in a CO₂ incubator at 37°C for 4 hours (activation). The HL60 cells were washed twice with serum-free DMEM, suspended in 0.5% glutaldehyde-containing Hanks' solution and fixed on wet ice for 30 minutes.
The fixed cells were washed twice with serum-free DMEM to remove the fixative. Then, 10% FCS-containing DMEM was added to the cells so as to provide a suspension of 2x10⁶ cells/ml, which was then preserved on wet ice till use.
The HUVEC activated above was washed with 10% FCS-containing DMEM and 50µl of 10% FCS-DMEM containing either anti-ELAM-1 antibody (BBA 2, British Biotechnology Ltd., Abinton) or the test substance was added followed by incubation at room temperature for 30 minutes. The fixed HL60 cells were added in 50 µl aliquots and the incubation was further continued at room temperature for 45 minutes.
After the unbound HL60 cells were washed off, the center of each well was photographed and the number of adhered cells in the photographing field was counted. With the number of HL60 cells bound to the IL-1β-activated HUVEC being taken as 100%, the effect of addition of the test substance was evaluated.

[1] = concentration of 500 µg/ml, referring to Table 2
[2] = concentration of 100 µg/ml, referring to Table 1

Compound | Cell adhesion count (%) (Table 2, 50 µg/ml, n=6) | Cell adhesion count (Table 2, 50 µg/ml, n=6) | Cell adhesion count (%) (Table 2, 500 µg/ml, n=6) | Cell adhesion count (Table 2, 500 µg/ml, n=6) | inhibit the adhesion of HL60 cells to activated HUVEC [1] [%] | Cell adhesion count (%) (Table 1, 100 µg/ml, n=5) | Cell adhesion count (Table 1, 100 µg/ml, n=5) | inhibit the adhesion of HL60 cells to activated HUVEC [2] [%]
6-O-(5-acetamido-3,5-dideoxy-D-glycero-α-D-galacto-2-nonulopyranosylono-1',5-N-lactam)-1,5-dideoxy-1,5-imino-D-galactitol [Example (10)] | 93.4 | 494.7 | 82.5 | 436.2 | 17.5 | – | – | –
CC(=O)N1C(=O)C2(OCC3NCC(O)C(O)C3O)CC(O)C1C(C(O)C(O)CO)O2 [Example (8), 6-O-(5-acetamido-3,5-dideoxy-D-glycero-α-D-galacto-2-nonulopyranosylono-1',5-N-lactam)-1,5-dideoxy-1,5-imino-D-glucitol] | 89.6 | 473.7 | 81.1 | 428.5 | 18.9 | – | – | –
CC(=O)N[C@H]1[C@H]([C@H](O)[C@H](O)CO)O[C@@](OC[C@@H]2[C@H](O)[C@H](O)[C@@H](O)CN2C)(C(=O)O)C[C@@H]1O [Example (11), O-(5-acetamido-3,5-dideoxy-D-glycero-α-D-galacto-2-nonulopyranosylonic acid)-(2→6)-1,5-dideoxy-N-methyl-1,5-imino-D-galactitol] | – | – | – | – | – | 40.4 | 155.0 | 59.6
CC(=O)N[C@H]1[C@H]([C@H](O)[C@H](O)CO)O[C@@](OC[C@@H]2[C@@H](O)[C@H](O)[C@@H](O)CN2C)(C(=O)O)C[C@@H]1O [Example (9), O-(5-acetamido-3,5-dideoxy-D-glycero-α-D-galacto-2-nonulopyranosylonic acid)-(2→6)-1,5-dideoxy-N-methyl-1,5-imino-D-glucitol] | – | – | – | – | – | 49.1 | 188.4 | 50.9
